Common to all, as to type: in vivo
The test system of assay [1] is generalized trembling caused by an interperitoneal injection (200 mg/kg) of dl-5-hydroxytryptophane. Put plainly: Test A: potentiation in mice of generalized trembling caused by dl-5-hydroxytryptophane. To be noted: Mus musculus, po, dl-5-hydroxytryptophane 200 mg/kg intraperitoneal, read-out: Test A ED 50. The procedure:
Potentiation in mice of generalized trembling caused by an interperitoneal injection (200 mg/kg) of dl-5-hydroxytryptophane, following the protocol described by C. GOURET and G. RAYNAUD in J. Pharmacol. (Paris), (1974) 5, 231.

The test system of assay [2] is ptosis observed one hour after an intravenous injection (2 mg/kg) of reserpine. In words: Test B: antagonism of the ptosis caused by reserpine in mice. To be noted: Mus musculus, po, 1 h, p.o., reserpine 2 mg/kg intravenous, read-out: Test B ED 50. As for the experimental part: Antagonism with respect to the ptosis observed one hour after an intravenous injection (2 mg/kg) of reserpine given to mice, following the protocol described by C.

Assay [3] has as its system pontogeniculo-occipital points (P.G.O.) caused by an intravenous injection (0.5 mg/kg) of reserpine. Put plainly: Test C: reduction in the density of pontogeniculo-occipital points (P.G.O.) caused by reserpine in cats. As to conditions: Felis catus, ip, reserpine 0.5 mg/kg intravenous, read-out: Test C ED 50. As for the experimental part: Reduction in the density of pontogeniculo-occipital points (P.G.O.) caused by an intravenous injection (0.5 mg/kg) of reserpine given to cats, following the protocol described by A. COSTON and C. GOURET in J. Pharmacol. (Paris) (1976), 7, 409.

On to `O=C1OC(CO)CN1c1ccc(OCCN2CCOCC2)cc1` (centres unmarked) [750 601], for which the ED50 in assay [1] worked out at 70 mg/kg; in assay [2] it was 8 mg/kg; in assay [3], 31 mg/kg.

As for `COCOc1ccc(N2CC(CO)OC2=O)cc1` (centres unmarked) [760 904], the ED50 came out at 50 mg/kg in assay [1], 50 mg/kg in assay [2] and 8.5 mg/kg in assay [3].

For `CC(COc1ccc(N2CC(CO)OC2=O)cc1)=NO` (centres unmarked) [770 126, oxime of 3-(p-acetylmethyloxyphenyl) 5-hydroxymethyl 2-oxazolidinone], the figures for the ED50 in assay [1], in assay [2] and in assay [3] were 8 mg/kg, 11 mg/kg and 16.5 mg/kg, respectively.

Consider `O=C1OC(CO)CN1c1ccc(C(F)(F)F)cc1` (centres unmarked) [770 152, 5-hydroxymethyl 3-p-trifluoromethylphenyl 2-oxazolidinone], for which the ED50 in assay [1] came to 20 mg/kg; in assay [2], 25 mg/kg; in assay [3], 15 mg/kg.

As for `CC(C)C(=O)COc1ccc(N2CC(CO)OC2=O)cc1` (centres unmarked) [770 154], the ED50 is 50 mg/kg in assay [1], 50 mg/kg in assay [2] and 20 mg/kg in assay [3].

Regarding `CN(C)c1cccc(N2CC(CO)OC2=O)c1` (centres unmarked) [770 155], the ED50 is 50 mg/kg in assay [1], 22.5 mg/kg in assay [2] and 35 mg/kg in assay [3].

Regarding `CCCCCSc1ccc(N2CC(CO)OC2=O)cc1` (centres unmarked) [770 180], the values for the ED50 in assay [1], in assay [2] and in assay [3] were 35 mg/kg, 45 mg/kg and 45 mg/kg, respectively.

Turning to `C=CCCCOc1ccc(N2CC(CO)OC2=O)cc1` (centres unmarked) [770 196], the ED50 in assay [1] was determined as 20 mg/kg; in assay [2] it was 15 mg/kg; in assay [3], 16 mg/kg.

For `O=C1OC(CO)CN1c1ccc(OCc2cccnc2)cc1` (centres unmarked) [770 221], the ED50 stood at 11.8 mg/kg in assay [1], 3.12 mg/kg in assay [2] and 15 mg/kg in assay [3].

As to `CC(=O)COc1cccc(N2CC(CO)OC2=O)c1` (centres unmarked) [770 230], the figures for the ED50 in assay [2] and in assay [3] were 6.25 mg/kg and 16 mg/kg, respectively.

`N#CCOc1cccc(N2CC(CO)OC2=O)c1` (centres unmarked) [770 231, 5-hydroxymethyl 3-m-cyanomethyloxyphenyl 2-oxazolidinone]: the ED50 in assay [1] was 40 mg/kg; in assay [2] it was 50 mg/kg; in assay [3] it was 14 mg/kg.

`O=C1OC(CO)CN1c1ccc(OCc2ccc(Cl)c(Cl)c2)cc1` (centres unmarked) [770 268]: the ED50 amounted to 7 mg/kg in assay [1] and 8.5 mg/kg in assay [2].

With `O=C1OC(CO)CN1c1ccc(OCc2ccccn2)cc1` (centres unmarked) [770 298], the results for the ED50 in assay [1] and in assay [2] were 55 mg/kg and 12.5 mg/kg, respectively.

Regarding `O=C1OC(CO)CN1c1ccc(OCc2ccncc2)cc1` (centres unmarked) [770 299], the ED50 was 20 mg/kg in assay [1] and 12.5 mg/kg in assay [2].

For the compound `N#Cc1ccccc1COc1ccc(N2CC(CO)OC2=O)cc1` (centres unmarked) [770 318], the ED50 in assay [1] came out at 25 mg/kg; in assay [2], 16 mg/kg.

Regarding `CCCCCNc1ccc(N2CC(CO)OC2=O)cc1` (centres unmarked) [770 328, 3-p-n pentylaminophenyl 5-hydroxymethyl 2-oxazolidinone], the results for the ED50 in assay [1] and in assay [2] were 25 mg/kg and 35 mg/kg, respectively.

With `O=C1OC(CO)CN1c1ccc(OCc2ccc(Cl)cc2Cl)cc1` (centres unmarked) [770 354], the ED50 in assay [1] stood at 25 mg/kg; in assay [2], 30 mg/kg; in assay [3], 30 mg/kg.

As to `CCC(=O)c1ccc(N2CC(CO)OC2=O)cc1` (centres unmarked) [770 365], the ED50 is 29 mg/kg in assay [1] and 25 mg/kg in assay [2].

As for `O=C1OC(CO)CN1c1ccc(OCC2CC2)cc1` (centres unmarked) [770 388], the ED50 in assay [1] was 9 mg/kg; in assay [2] it was 12.5 mg/kg; in assay [3], 4.5 mg/kg.

Turning to `O=C1OC(CO)CN1c1ccc(OCc2cc(Cl)cc(Cl)c2)cc1` (centres unmarked) [770 416], the values for the ED50 in assay [1], in assay [2] and in assay [3] were 6.2 mg/kg, 10 mg/kg and 3 mg/kg, respectively.

With `CCCC(=O)c1ccc(N2CC(CO)OC2=O)cc1` (centres unmarked) [770 423], the values for the ED50 in assay [1], in assay [2] and in assay [3] were 35 mg/kg, 25 mg/kg and 5 mg/kg, respectively.

In the case of `O=C1OC(CO)CN1c1ccc(OCC2=CCCC2)cc1` (centres unmarked) [770 466], the ED50 is 9.6 mg/kg in assay [1], 6.2 mg/kg in assay [2] and 9 mg/kg in assay [3].

Turning to `O=C1OC(CO)CN1c1ccc(OCC2CCCC2)cc1` (centres unmarked) [770 467], the ED50 was 2.8 mg/kg in assay [1], 1.2 mg/kg in assay [2] and 3 mg/kg in assay [3].

For `CC(=O)CSc1ccc(N2CC(CO)OC2=O)cc1` (centres unmarked) [770 501, 3-(p-acetylmethylthiophenyl) 5-hydroxymethyl 2-oxazolidinone], the ED50 amounted to 22 mg/kg in assay [1] and 25 mg/kg in assay [2].

As for `CC(=O)Nc1ccc(COc2ccc(N3CC(CO)OC3=O)cc2)cc1` (centres unmarked) [770 569], the ED50 stood at 5 mg/kg in assay [1], 2.5 mg/kg in assay [2] and 6 mg/kg in assay [3].

As to `O=C1OC(CO)CN1c1ccc(OCc2ccc(F)c(Cl)c2)cc1` (centres unmarked) [770 572], the ED50 in assay [1] was 6.3 mg/kg; in assay [2], 3.12 mg/kg; in assay [3] it was 8.5 mg/kg.

Regarding `O=C1OC(CO)CN1c1ccc(OCc2ccc(Cl)c([N+](=O)[O-])c2)cc1` (centres unmarked) [770 672], the ED50 in assay [1] stood at 25 mg/kg; in assay [2], 19 mg/kg.

Consider `O=C1OC(CO)CN1c1ccc(COc2ccccc2)cc1` (centres unmarked) [770 696], for which the ED50 in assay [1] turned out to be 15 mg/kg; in assay [2] it was 20 mg/kg.

Consider `O=C1OC(CO)CN1c1ccc(OCC2CCC2)cc1` (centres unmarked) [770 788], for which the ED50 amounted to 6.25 mg/kg in assay [1] and 12.5 mg/kg in assay [2].

With `N#Cc1cc(COc2ccc(N3CC(CO)OC3=O)cc2)ccc1F` (centres unmarked) [770 789], the ED50 in assay [1] was determined as 3 mg/kg; in assay [2] it was 2 mg/kg.

With `O=C1OC(CO)CN1c1ccc(OCc2ccc([N+](=O)[O-])c(Cl)c2)cc1` (centres unmarked) [770 790], the ED50 in assay [1] was 50 mg/kg; in assay [2], 25 mg/kg.

With `O=C1OC(CO)CN1c1ccc(OCc2cnccn2)cc1` (centres unmarked) [770 845], the ED50 was determined as 6.25 mg/kg in assay [1] and 12.5 mg/kg in assay [2].

`O=C1OC(CO)CN1c1ccc(OCC2CCCCO2)cc1` (centres unmarked) [770 900]: the ED50 came to 50 mg/kg in assay [1] and 25 mg/kg in assay [2].

Consider `O=C1OC(CO)CN1c1ccc(OCCC2CCCCC2)cc1` (centres unmarked) [770 949], for which the ED50 in assay [1] was found to be 10 mg/kg; in assay [2], 16 mg/kg.

`O=C1OC(CO)CN1c1ccc(OCC2OCCO2)cc1` (centres unmarked) [770 962]: the ED50 in assay [1] was 26 mg/kg; in assay [2] it was 50 mg/kg.

Take `O=C1OC(CO)CN1c1ccc(OCc2ccoc2)cc1` (centres unmarked) [770 979]: the ED50 in assay [1] came to 14 mg/kg; in assay [2], 35 mg/kg.

`O=C1OC(CO)CN1c1ccc(OCC2=CCC=CC2)cc1` (centres unmarked) [770 984]: the ED50 in assay [1] is 10 mg/kg; in assay [2] it was 25 mg/kg.

Consider `O=C1OC(CO)CN1c1ccc(OCc2ccsc2)cc1` (centres unmarked) [771 067], for which the ED50 turned out to be 7.5 mg/kg in assay [1] and 12.5 mg/kg in assay [2].

Turning to `N#Cc1cc(COc2ccc(N3CC(CO)OC3=O)cc2)cc([N+](=O)[O-])c1` (centres unmarked) [771 125], the ED50 in assay [1] amounted to 3.12 mg/kg; in assay [2], 1.56 mg/kg.

`O=C1OC(CO)CN1c1ccc(CCc2cccc(Cl)c2)cc1` (centres unmarked) [771 181]: the ED50 in assay [1] and in assay [2] was 6.25 mg/kg each time.

In the case of `CCC(CC)COc1ccc(N2CC(CO)OC2=O)cc1` (centres unmarked) [771 197], the ED50 in assay [1] was found to be 25 mg/kg; in assay [2] it was 16 mg/kg.

Take `O=C1OC(CO)CN1c1ccc(OCc2cc(Cl)cc([N+](=O)[O-])c2)cc1` (centres unmarked) [771 199]: the ED50 in assay [1] worked out at 1.1 mg/kg; in assay [2], 0.8 mg/kg.

Turning to `Nc1cccc(COc2ccc(N3CC(CO)OC3=O)cc2)c1` (centres unmarked) [771 240], the results for the ED50 in assay [1] and in assay [2] were 35 mg/kg and 50 mg/kg, respectively.

Take `CC(C)(C)CCOc1ccc(N2CC(CO)OC2=O)cc1` (centres unmarked) [771 246]: the ED50 in assay [1] came to 17 mg/kg; in assay [2], 23 mg/kg.

With `CC(C)(C)COc1ccc(N2CC(CO)OC2=O)cc1` (centres unmarked) [771 249], the values for the ED50 in assay [1] and in assay [2] were 22.5 mg/kg and 50 mg/kg, respectively.

On to `O=C1OC(CO)CN1c1ccc(COc2cccc([N+](=O)[O-])c2)cc1` (centres unmarked) [771 263, 3-para (metanitrophenoxymethyl) phenyl 5-hydroxymethyl 2-oxazolidinone], for which the ED50 in assay [1] amounted to 4 mg/kg; in assay [2] it was 3.1 mg/kg.

In the case of `O=C1OC(CO)CN1c1ccc(OCc2cccc(I)c2)cc1` (centres unmarked) [771 321], the values for the ED50 in assay [1] and in assay [2] were 25 mg/kg and 20 mg/kg, respectively.

Consider `O=C1OC(CO)CN1c1ccc(OCC2CCCCCC2)cc1` (centres unmarked) [780 030], for which the ED50 in assay [1] worked out at 3 mg/kg; in assay [2], 5.3 mg/kg.

Turning to `O=C1OC(CO)CN1c1ccc(OCC2CCCOC2)cc1` (centres unmarked) [780 034], the ED50 in assay [1] is 4.4 mg/kg; in assay [2], 6.2 mg/kg.

As for `CC1(COc2ccc(N3CC(CO)OC3=O)cc2)CCCC1` (centres unmarked) [780 076], the ED50 is 2.3 mg/kg in assay [1] and 7 mg/kg in assay [2].

`O=C1OC(CO)CN1c1ccc(OCC2SCCCS2)cc1` (centres unmarked) [780 077]: the ED50 stood at 25 mg/kg in assay [1] and 44 mg/kg in assay [2].

With `O=C1OC(CO)CN1c1ccc(OCC2SCCS2)cc1` (centres unmarked) [780 080, 3-para[(1,3-dithiolan-2-yl)-methoxy]phenyl 5-hydroxymethyl 2-oxazolidinone], the ED50 in assay [1] and in assay [2] was 50 mg/kg each time.

With `O=C1OC(CO)CN1c1ccc(OCC2OCCS2)cc1` (centres unmarked) [780 112], the ED50 in assay [1] is 5 mg/kg; in assay [2], 5.2 mg/kg.

For `COC(=O)Nc1ccc(COc2ccc(N3CC(CO)OC3=O)cc2)cc1` (centres unmarked) [780 182], the results for the ED50 in assay [1] and in assay [2] were 40 mg/kg and 25 mg/kg, respectively.

Regarding `CCC(=O)Nc1ccc(COc2ccc(N3CC(CO)OC3=O)cc2)cc1` (centres unmarked) [780 443], the ED50 in assay [1] worked out at 3.7 mg/kg; in assay [2], 12.5 mg/kg.

Values taken from patent publication US4338451A, “5-Hydroxymethyl oxazolidinones” (Delalande S.A., priority 1977, dated 1982).
